Data taken from patent publication US8691225B2, “Antibodies against the ectodomain of ErbB3 and uses thereof” (Merrimack Pharmaceuticals, Inc., priority 2007, dated 2014).
Read-outs that look alike come from different tables or passages of the source.

Legend:
[1] = system: ErbB3 phosphorylation in AdrR cells; experiment: inhibitor dose response of ligand-induced ErbB3 phosphorylation (ELISA); assay type: cell-based, human; details: for IC50: Homo sapiens, 10 min
Protocol: Phosphorylation of ErbB3 is measured by ELISA (R&D Systems, DYC1769-5, per manufacturers protocol) and IC50 values are determined using Prism (GraphPad Software Inc.).

[2] = system: SKOV3 subcutaneous xenograft tumors; experiment: PI3K mutant SKOV3 subcutaneous xenograft tumors; assay type: in vivo, mouse; details: Ab #6 300 μg every three days; cisplatin 1.5 mg/kg; dosing after 30 day lag phase
Description: SKOV3 (SKOV-3) is an ovarian cancer cell line that comprises a mutation that upregulates PI3K expression.

[3] = system: A549 subcutaneous xenograft tumors; experiment: KRAS mutant A549 subcutaneous xenograft tumors; assay type: in vivo, mouse; details: Ab #6 300 μg every three days; erlotinib 25 mg/kg every day; taxol 20 mg/kg every 7 days
[4] = system: ACHN (a renal tumor cell line) xenograft tumors; experiment: ACHN xenograft combination therapy; assay type: in vivo, mouse; details: Ab #6 300 μg IP every three days; erlotinib 25 mg/kg orally once daily
Protocol: In a first experiment, mice bearing ACHN (a renal tumor cell line) xenograft tumors are prepared by establishing tumors subcutaneously in the flanks of nude mice (Charles River Laboratories).

[5] = system: DU145 (a prostate tumor cell line) xenograft tumors; experiment: DU145 xenograft combination therapy; assay type: in vivo, mouse; details: Ab #6 300 μg IP every three days; taxol 20 mg/kg IP once per week
Protocol: In a second experiment, mice bearing DU145 (a prostate tumor cell line) xenograft tumors are prepared by establishing tumors subcutaneously in the flanks of nude mice (Charles River Laboratories). […] Again, tumor size is measured twice a week and measurements are used to calculate tumor volume.

[6] = target: ErbB3 (Homo sapiens, UniProt P21860); experiment: paratope mapping: binding of Ab #6 scFv mutants to ErbB3; details: scFv format; compared with binding to Protein A
Protocol: FIG. 36 presents data from paratope mapping experiments.
This format is used to investigate the effect on ErbB3 binding of alanine (and in some cases phenylalanine) substitution mutations in the CDR loops.
All of the mutations are made using standard recombinant DNA techniques and binding of the mutants to ErbB3 is tested using standard screening techniques known in the art.

[7] = target: T1, heregulin binding to ErbB3 on MALME-3M cells (Homo sapiens, UniProt P21860); experiment: biotinylated heregulin binding to MALME3M cells by FACS; assay type: cell-based; details: 5 μM antibody, 20 nM heregulin EGF
T1 construct: ErbB3 expressed on MALME-3M melanoma cells; host or cells: MALME-3M melanoma cells
Protocol: After 30 minutes, 50 μl of 40 nM biotinylated heregulin EGF is added to the cells and incubated for another 10 minutes on ice. This yields a final concentration of 5 μM antibody and 20 nM heregulin EGF. Cells are then washed twice with 500 μl BD stain buffer and incubated with 100 μl of a 1:200 dilution of streptavidin-PE (PE=phycoerythrin) (Invitrogen) in BD stain buffer for 45 minutes. Finally, cells are washed twice, resuspended in 300 μl of BD stain buffer and analyzed in a FACSCALIBUR flow cytometer. As a positive control, 1×10^5 MALME3M cells are incubated with 20 nM heregulin EGF for 10 minutes on ice, washed twice and incubated with a 1:200 dilution of streptavidin-PE for 45 minutes. In order to assess background staining from the streptavidin-PE conjugate, 1×10^5 MALME3M cells are incubated with 100 μl of a 1:200 dilution of streptavidin-PE only for 45 minutes.

Work on `CS(=O)(=O)CCNCc1ccc(-c2ccc3ncnc(Nc4ccc(OCc5cccc(F)c5)c(Cl)c4)c3c2)o1` [Lapatinib] yielded an IC50 ([1]; 25 nM BTC, read-out: IC50, BTC-induced ErbB3 phosphorylation) of 360 nM and an IC50 ([1]; 25 nM HRG, read-out: IC50, HRG-induced ErbB3 phosphorylation) of 150 nM.

In the case of `N.N.[Cl][Pt][Cl]` [cisplatin], the tumor growth inhibition [2] is reported as “able to inhibit the growth of the SKOV3 xenografts”.

`C#Cc1cccc(Nc2ncnc3cc(OCCOC)c(OCCOC)cc23)c1` [erlotinib, reference compound] was tested, and the tumor growth inhibition [3] was “insensitive” and the “inhibition of tumor growth (tumor volume)” value [4] was “inhibit tumor growth”.

With `CC(=O)O[C@H]1C(=O)[C@@]2(C)[C@H]([C@H](OC(=O)c3ccccc3)[C@]3(O)C[C@H](OC(=O)[C@H](O)[C@@H](NC(=O)c4ccccc4)c4ccccc4)C(C)=C1C3(C)C)[C@]1(OC(C)=O)CO[C@@H]1C[C@@H]2O` [taxol, reference compound] the tumor growth inhibition [3] was “insensitive” and the “inhibition of tumor growth (tumor volume)” value [5] was “inhibited tumor growth”.

Pertuzumab was tested, and the “IC50, BTC-induced ErbB3 phosphorylation” value ([1]; 25 nM BTC, 10 minutes) was “did not inhibit”.

B1: M1: Ab #6 scFv mutant, H1 loop, Thr28Ala (antibody, chains of the INN, looked up, variant H:T28A, V domains shown)
VH: EVQLLESGGGLVQPGGSLRLSCAASGFAFSHYVMAWVRQAPGKGLEWVSSISSSGGWTLYADSVKGRFTISRDNSKNTLYLQMNSLRAEDTAVYYCTRGLKMATIFDYWGQGTLVTVSS
VL: QSALTQPASVSGSPGQSITISCTGTSSDVGSYNVVSWYQQHPGKAPKLIIYEVSQRPSGVSNRFSGSKSGNTASLTISGLQTEDEADYYCCSYAGSSIFVIFGGGTKVTVL
modifications: scFv
With B1 the “Effect on ErbB3 Binding of Ab #6 Mutations” value (from here on “Effect on ErbB3 Binding”) [6] was “no effect on binding”.

B2: M5: Ab #6 scFv mutant, CDR H1, Tyr32Phe (antibody, chains of the INN, looked up, variant H:Y32F, V domains shown)
VH: EVQLLESGGGLVQPGGSLRLSCAASGFTFSHFVMAWVRQAPGKGLEWVSSISSSGGWTLYADSVKGRFTISRDNSKNTLYLQMNSLRAEDTAVYYCTRGLKMATIFDYWGQGTLVTVSS
VL: QSALTQPASVSGSPGQSITISCTGTSSDVGSYNVVSWYQQHPGKAPKLIIYEVSQRPSGVSNRFSGSKSGNTASLTISGLQTEDEADYYCCSYAGSSIFVIFGGGTKVTVL
modifications: scFv
For B2, the “Effect on ErbB3 Binding” value [6] was “no effect on binding”.

B3: M4: Ab #6 scFv mutant, CDR H1, Tyr32Ala (antibody, chains of the INN, looked up, variant H:Y32A, V domains shown)
VH: EVQLLESGGGLVQPGGSLRLSCAASGFTFSHAVMAWVRQAPGKGLEWVSSISSSGGWTLYADSVKGRFTISRDNSKNTLYLQMNSLRAEDTAVYYCTRGLKMATIFDYWGQGTLVTVSS
VL: QSALTQPASVSGSPGQSITISCTGTSSDVGSYNVVSWYQQHPGKAPKLIIYEVSQRPSGVSNRFSGSKSGNTASLTISGLQTEDEADYYCCSYAGSSIFVIFGGGTKVTVL
modifications: scFv
In the case of B3, the “Effect on ErbB3 Binding” value [6] is reported as “large decrease in binding (based on the three groupings shown in FIG. 36)”.

B4: M3: Ab #6 scFv mutant, CDR H1, His31Ala (antibody, chains of the INN, looked up, variant H:H31A, V domains shown)
VH: EVQLLESGGGLVQPGGSLRLSCAASGFTFSAYVMAWVRQAPGKGLEWVSSISSSGGWTLYADSVKGRFTISRDNSKNTLYLQMNSLRAEDTAVYYCTRGLKMATIFDYWGQGTLVTVSS
VL: QSALTQPASVSGSPGQSITISCTGTSSDVGSYNVVSWYQQHPGKAPKLIIYEVSQRPSGVSNRFSGSKSGNTASLTISGLQTEDEADYYCCSYAGSSIFVIFGGGTKVTVL
modifications: scFv
In the case of B4, the “Effect on ErbB3 Binding” value [6] is reported as “no effect on binding”.

B5: Ab/Fab #3: a Fab version of Ab #3 (antibody, V domains shown)
VH: EVQLLESGGGLVQPGGSLRLSCAASGFTFSAYNMRWVRQAPGKGLEWVSVIYPSGGATRYADSVKGRFTISRDNSKNTLYLQMNSLRAEDTAVYYCARGYYYYGMDVWGQGTLVTVSS
VL: QSVLTQPPSASGTPGQRVTISCSGSDSNIGRNYIYWYQQFPGTAPKLLIYRNNQRPSGVPDRISGSKSGTSASLAISGLRSEDEAEYHCGTWDDSLSGPVFGGGTKLTVL
For B5, the “inhibition of heregulin binding to ErbB3” value [7] was “able to inhibit heregulin binding to ErbB3”.
